Assay results: patent publication US10370343B2, “[6,6] Fused bicyclic HDAC8 inhibitors” (FORMA Therapeutics, Inc., priority 2015, dated 2019)

Experiments:
[1] = molecular target: T1, Recombinant N-terminal GST tag full-length human HDAC8 (Homo sapiens, UniProt Q9BY41); assay: HDAC8 probe binding assay, time resolved fluorescence (TRF) format; conditions: compounds grouped by IC50 range (Table 2)
T1 construct: Recombinant N-terminal GST tag full-length human HDAC8; purchased SignalChem H90-30G-1000; host or cells: baculovirus in Sf9 insect cells
T1 sequence (Q9BY41 1-377): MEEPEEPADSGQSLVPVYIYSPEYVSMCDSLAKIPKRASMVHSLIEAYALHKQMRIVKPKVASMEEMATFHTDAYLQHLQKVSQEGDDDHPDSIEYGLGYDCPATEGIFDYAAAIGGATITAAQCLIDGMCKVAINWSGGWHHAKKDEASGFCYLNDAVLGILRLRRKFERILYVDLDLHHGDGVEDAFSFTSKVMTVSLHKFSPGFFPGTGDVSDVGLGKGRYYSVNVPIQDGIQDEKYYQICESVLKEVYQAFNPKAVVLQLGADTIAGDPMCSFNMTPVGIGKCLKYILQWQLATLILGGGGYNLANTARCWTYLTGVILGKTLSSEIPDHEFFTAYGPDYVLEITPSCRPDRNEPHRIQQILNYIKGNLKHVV
Method in brief: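 IC50 values come from four-parameter logistic fits of percent inhibition, scaled between DMSO (high) and no-enzyme (low) controls. Time-resolved fluorescence (ex 340, em 485/535 nm) was read after 16 h at room temperature. Enzyme was Sf9-expressed full-length human HDAC8 with an N-terminal GST tag, in a probe-binding format.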

[2] = molecular target: T2, Full length human recombinant HDAC8 protein (Homo sapiens, UniProt Q9BY41); assay: In vitro histone deacetylase assay: enzymatic HDAC8 electrophoretic mobility shift assay; assay type: biochemical; conditions: electrophoretic mobility shift assay; enzyme 1 nM; 2 μM fluorescently labeled peptide substrate RHKK(Ac)-NH2; 25° C.; 12 concentrations; read-out: HDAC8 IC50
T2 construct: Full length human recombinant HDAC8 protein was expressed in baculoviral system; made in house
T2 sequence (Q9BY41 1-377): T1 sequence (Q9BY41 1-377)

Row | IC50 [1] [nM] | IC50 [2] [nM] | SMILES
1 | 25 to 100 | 25 to 100 | COc1ccc(CN2C(=O)C(C)(C)Oc3ccc(C(=O)NO)cc32)cc1 [Compound I-98, N-hydroxy-4-(4-methoxybenzyl)-2,2-dimethyl-3-oxo-3,4-dihydro-2H-benzo[b][1,4]oxazine-6-carboxamide]
2 | ≤ 25 | < 25 | O=C(NO)c1ccc2c(c1)N(Cc1ccc(Cl)c(Cl)c1)C(=O)CO2 [Compound I-258, 4-(3,4-dichlorobenzyl)-N-hydroxy-3-oxo-3,4-dihydro-2H-benzo[b][1,4]oxazine-6-carboxamide]
3 | ≤ 25 | < 25 | COc1ccc2oc(CN3C(=O)COc4ccc(C(=O)NO)cc43)nc2c1 [Compound I-285, N-hydroxy-4-((5-methoxybenzo[d]oxazol-2-yl)methyl)-3-oxo-3,4-dihydro-2H-benzo[b][1,4]oxazine-6-carboxamide]
4 | 25 to 100 | 25 to 100 | O=C(NO)c1ccc2c(c1)N(CCc1ccccc1)C(=O)CO2 [Compound I-58, N-hydroxy-3-oxo-4-phenethyl-3,4-dihydro-2H-benzo[b][1,4]oxazine-6-carboxamide]
5 | 25 to 100 | 25 to 100 | O=C(NO)c1ccc2c(c1)N(Cc1nc3cccnc3n1Cc1ccccc1)C(=O)CO2 [Compound I-284, 4-((3-benzyl-3H-imidazo[4,5-b]pyridin-2-yl)methyl)-N-hydroxy-3-oxo-3,4-dihydro-2H-benzo[b][1,4]oxazine-6-carboxamide]
6 | 25 to 100 | 25 to 100 | O=C(NO)c1ccc2c(c1)N(Cc1cc(F)ccc1C(F)(F)F)C(=O)CO2 [Compound I-268, 4-(5-fluoro-2-(trifluoromethyl)benzyl)-N-hydroxy-3-oxo-3,4-dihydro-2H-benzo[b][1,4]oxazine-6-carboxamide]
7 | ≤ 25 | < 25 | COc1ccc(CN2C(=O)COc3ccc(C(=O)NO)cc32)cc1C(F)(F)F [Compound I-246, N-hydroxy-4-(4-methoxy-3-(trifluoromethyl)benzyl)-3-oxo-3,4-dihydro-2H-benzo[b][1,4]oxazine-6-carboxamide]
8 | 25 to 100 | 25 to 100 | COc1ccc(CN2C(=O)C3(CCC3)Oc3ccc(C(=O)NO)cc32)cc1 [Compound I-157, N-hydroxy-4-(4-methoxybenzyl)-3-oxo-3,4-dihydrospiro[benzo[b][1,4]oxazine-2,1′-cyclobutane]-6-carboxamide]
9 | 25 to 100 | 25 to 100 | Cn1c(CN2C(=O)COc3ccc(C(=O)NO)cc32)nc2ccc(Cl)cc21 [Compound I-278, 4-((6-chloro-1-methyl-1H-benzo[d]imidazol-2-yl)methyl)-N-hydroxy-3-oxo-3,4-dihydro-2H-benzo[b][1,4]oxazine-6-carboxamide]
10 | 25 to 100 | 25 to 100 | CC(C)CCN1C(=O)COc2ccc(C(=O)NO)cc21 [Compound I-59, N-hydroxy-4-isopentyl-3-oxo-3,4-dihydro-2H-benzo[b][1,4]oxazine-6-carboxamide]
11 | 25 to 100 | 25 to 100 | CC(c1c(F)cccc1F)N1C(=O)COc2ccc(C(=O)NO)cc21 (centres unmarked) [Compound I-96, 4-(1-(2,6-difluorophenyl)ethyl)-N-hydroxy-3-oxo-3,4-dihydro-2H-benzo[b][1,4]oxazine-6-carboxamide]
12 | ≤ 25 | 25 to 100 | Cc1ccc(CN2C(=O)COc3ccc(C(=O)NO)cc32)c(C)c1 [Compound I-280, 4-(2,4-dimethylbenzyl)-N-hydroxy-3-oxo-3,4-dihydro-2H-benzo[b][1,4]oxazine-6-carboxamide]
13 | 25 to 100 | 25 to 100 | CCOc1c(F)cc(CN2C(=O)COc3ccc(C(=O)NO)cc32)cc1F [Compound I-250, 4-(4-ethoxy-3,5-difluorobenzyl)-N-hydroxy-3-oxo-3,4-dihydro-2H-benzo[b][1,4]oxazine-6-carboxamide]
14 | 25 to 100 | 25 to 100 | O=C(NO)c1ccc2c(c1)N(CC1CCC1)C(=O)CO2 [Compound I-31, 4-(cyclobutylmethyl)-N-hydroxy-3-oxo-3,4-dihydro-2H-benzo[b][1,4]oxazine-6-carboxamide]
15 | 25 to 100 | 25 to 100 | CC(c1ccc(S(C)(=O)=O)cc1)N1CCOc2ccc(C(=O)NO)cc21 (centres unmarked) [Compound I-135, N-hydroxy-4-(1-(4-(methylsulfonyl)phenyl)ethyl)-3,4-dihydro-2H-benzo[b][1,4]oxazine-6-carboxamide]
16 | ≤ 25 | < 25 | COc1ccc(CN2C(=O)COc3ccc(C(=O)NO)cc32)cc1 [Compound I-141, N-hydroxy-4-(4-methoxybenzyl)-3-oxo-3,4-dihydro-2H-benzo[b][1,4]oxazine-6-carboxamide]
17 | > 1000 | 100 to 1000 | O=C(NO)c1ccc2c(c1)N(Cc1csc(C3CC3)n1)CCO2 [Compound I-20, 4-((2-cyclopropylthiazol-4-yl)methyl)-N-hydroxy-3,4-dihydro-2H-benzo[b][1,4]oxazine-6-carboxamide]
18 | ≤ 25 | < 25 | COc1ccc(CN2C(=O)COc3ccc(C(=O)NO)cc32)c(F)c1F [Compound I-247, 4-(2,3-difluoro-4-methoxybenzyl)-N-hydroxy-3-oxo-3,4-dihydro-2H-benzo[b][1,4]oxazine-6-carboxamide]
19 | 25 to 100 | 25 to 100 | O=C(NO)c1ccc2c(c1)N(CCOCC(F)(F)F)C(=O)CO2 [Compound I-53, N-hydroxy-3-oxo-4-(2-(2,2,2-trifluoroethoxy)ethyl)-3,4-dihydro-2H-benzo[b][1,4]oxazine-6-carboxamide]
20 | ≤ 25 | < 25 | COc1ccc(CN2C(=O)C(C(C)C)Oc3ccc(C(=O)NO)cc32)cc1 (centres unmarked) [Compound I-100, N-hydroxy-2-isopropyl-4-(4-methoxybenzyl)-3-oxo-3,4-dihydro-2H-benzo[b][1,4]oxazine-6-carboxamide]
21 | ≤ 25 | < 25 | O=C(NO)c1ccc2c(c1)N(Cc1cccc(Cl)c1)C(=O)CO2 [Compound I-143, 4-(3-chlorobenzyl)-N-hydroxy-3-oxo-3,4-dihydro-2H-benzo[b][1,4]oxazine-6-carboxamide]
22 | 25 to 100 | 25 to 100 | O=C(NO)c1ccc2c(c1)N(Cc1csc(-c3ccccc3)n1)C(=O)CO2 [Compound I-271, N-hydroxy-3-oxo-4-((2-phenylthiazol-4-yl)methyl)-3,4-dihydro-2H-benzo[b][1,4]oxazine-6-carboxamide]
23 | ≤ 25 | < 25 | O=C(NO)c1ccc2c(c1)N(Cc1cccc(Cl)c1Cl)C(=O)CO2 [Compound I-254, 4-(2,3-dichlorobenzyl)-N-hydroxy-3-oxo-3,4-dihydro-2H-benzo[b][1,4]oxazine-6-carboxamide]
24 | ≤ 25 | < 25 | COc1ccc(CN2C(=O)COc3ccc(C(=O)NO)cc32)cc1Cl [Compound I-243, 4-(3-chloro-4-methoxybenzyl)-N-hydroxy-3-oxo-3,4-dihydro-2H-benzo[b][1,4]oxazine-6-carboxamide]
25 | 25 to 100 | < 25 | COc1ccc(CN2C(=O)COc3ccc(C(=O)NO)cc32)cc1C [Compound I-244, N-hydroxy-4-(4-methoxy-3-methylbenzyl)-3-oxo-3,4-dihydro-2H-benzo[b][1,4]oxazine-6-carboxamide]
26 | > 1000 | 100 to 1000 | CC(C)n1c(CN2C(=O)COc3ccc(C(=O)NO)cc32)nc2ccccc21 [Compound I-281, N-hydroxy-4-((1-isopropyl-1H-benzo[d]imidazol-2-yl)methyl)-3-oxo-3,4-dihydro-2H-benzo[b][1,4]oxazine-6-carboxamide]
27 | ≤ 25 | < 25 | CS(=O)(=O)c1ccc(CN2C(=O)COc3ccc(C(=O)NO)cc32)cc1 [Compound I-142, N-hydroxy-4-(4-(methylsulfonyl)benzyl)-3-oxo-3,4-dihydro-2H-benzo[b][1,4]oxazine-6-carboxamide]
28 | ≤ 25 | < 25 | O=C(NO)c1ccc2c(c1)N(Cc1nc3cc(Cl)ccc3o1)C(=O)CO2 [Compound I-272, 4-((5-chlorobenzo[d]oxazol-2-yl)methyl)-N-hydroxy-3-oxo-3,4-dihydro-2H-benzo[b][1,4]oxazine-6-carboxamide]
29 | ≤ 25 | < 25 | COc1cc(F)c(CN2C(=O)COc3ccc(C(=O)NO)cc32)c(F)c1 [Compound I-248, 4-(2,6-difluoro-4-methoxybenzyl)-N-hydroxy-3-oxo-3,4-dihydro-2H-benzo[b][1,4]oxazine-6-carboxamide]
30 | ≤ 25 | < 25 | COc1ccc(CN2C(=O)C(C)Oc3ccc(C(=O)NO)cc32)cc1 (centres unmarked) [Compound I-151, N-hydroxy-4-(4-methoxybenzyl)-2-methyl-3-oxo-3,4-dihydro-2H-benzo[b][1,4]oxazine-6-carboxamide]

Row | SMILES | IC50 [1] [nM] | IC50 [2] [nM]
31 | CN1CCCC[C@H]1CN1C(=O)COc2ccc(C(=O)NO)cc21 (stereo in doubt) [Compound I-47, N-hydroxy-4-((1-methylpiperidin-2-yl)methyl)-3-oxo-3,4-dihydro-2H-benzo[b][1,4]oxazine-6-carboxamide] | > 1000 | > 1000
